SMILES strings stand for the structures.

Holding throughout (assay type): in vivo
One assay has as its system choroid plexus. The assay is described as follows: Choroid plexus NIR fluorescence imaging (FLARE). The conditions noted are these: 25 g male mouse, 25 nmol intravenously, 4 hours; Channel 1 (700 nm) or Channel 2 (800 nm). The procedure: (§1) Absorbance and fluorescence emission spectra were measured using fiber optic HR2000 absorbance (200-1100 nm) and USB2000FL fluorescence (350-1000 nm) spectrometers (Ocean Optics, Dunedin, Fla.). Excitation was provided by a 532 nm green laser pointer (Opcom Inc., Xiamen, China) set to 5 mW, a 655 nm red laser pointer (Opcom Inc., Xiamen, China) set to 5 mW, or a 770 nm NIR laser diode light source (Electro Optical Components, Santa Rosa, Calif.) set to 10 mW and coupled through a 300 μm core diameter, NA 0.22 fiber (Fiberguide Industries, Stirling, N.J.). In silico calculations of the partition coefficient (log D at pH 7.4) and surface molecular charge and hydrophobicity were calculated using MarvinSketch 5.2.1 by taking major microspecies at pH 7.4 (ChemAxon, Budapest, Hungary). NIR Fluorescence Imaging System The dual-NIR channel FLARE′ imaging system has been described in detail previously (26-28). […] Color and two independent NIR fluorescence emission images (≈700 nm for Channel 1 and ≈800 nm for Channel 2) were acquired simultaneously with custom software at rates up to 15 Hz over a 15 cm diameter field of view. NIR fluorescence from Channel 1 was pseudo-colored in red and NIR fluorescence from Channel 2 was pseudo-colored in lime green prior to merger with the color video image. […] Animal Models and Intraoperative NIR Fluorescence Imaging […]

The subject of a further assay is thyroid. Nature of the assay: Thyroid NIR fluorescence imaging (FLARE). The conditions noted are these: 35 kg female pig, 5 μmol intravenously, 4 hours; Channel 1 (700 nm) or Channel 2 (800 nm). The procedure:
as §1

For the next assay, the system named is parathyroid. Nature of the assay: Parathyroid NIR fluorescence imaging (FLARE). The note with it: 35 kg female pig, 5 μmol intravenously, 4 hours; Channel 1 (700 nm) or Channel 2 (800 nm). The procedure: as §1
For the next assay, the system named is pancreas. Nature of the assay: Pancreas NIR fluorescence imaging (FLARE). The note with it: 35 kg female pig, 5 μmol intravenously, 4 hours; Channel 1 (700 nm) or Channel 2 (800 nm). The procedure:
as §1

Another assay deals with ureters. Nature of the assay: Ureter NIR fluorescence imaging (FLARE). The note with it: 35 kg female pig, 5 μmol intravenously, waiting period 30 min, imaged over next 4 hours; Channel 1 (700 nm) or Channel 2 (800 nm). The procedure:
as §1

A further assay concerns brown fat. The assay is described as follows: Brown adipose tissue NIR fluorescence imaging (FLARE). The note with it: 25 g male mouse, 25 nmol intravenously, 4 hours; Channel 1 (700 nm) or Channel 2 (800 nm). The procedure: as §1
In another assay the test system is pituitary gland. The assay is described as follows: Pituitary gland NIR fluorescence imaging (FLARE). The conditions noted are these: 25 g male mouse, 25 nmol intravenously, 4 hours; Channel 1 (700 nm) or Channel 2 (800 nm). The procedure: as §1
A further assay deals with white adipose tissue. Nature of the assay: White adipose tissue NIR fluorescence imaging (FLARE). The conditions noted are these: 25 g male mouse, 25 nmol intravenously, 4 hours; Channel 1 (700 nm) or Channel 2 (800 nm). The procedure: as §1
The subject of the next assay is spleen. The assay is described as follows: Spleen NIR fluorescence imaging (FLARE). The note with it: 25 g male mouse, 25 nmol intravenously, 4 hours; Channel 1 (700 nm) or Channel 2 (800 nm). The procedure:
as §1

A further assay concerns CSF. Nature of the assay: CSF NIR fluorescence imaging (FLARE). The conditions noted are these: 35 kg female pig, 5 μmol intravenously, 4 hours; Channel 1 (700 nm) or Channel 2 (800 nm). The procedure:
as §1

In the next assay the test system is seminal vesicle. The assay is described as follows: Seminal vesicle NIR fluorescence imaging (FLARE). The conditions noted are these: 25 g male mouse, 25 nmol intravenously, 4 hours; Channel 1 (700 nm) or Channel 2 (800 nm). The procedure: as §1
The subject of the next assay is brain grey matter. Nature of the assay: Brain grey matter NIR fluorescence imaging (FLARE). The note with it: 25 g male mouse, 25 nmol intravenously, 4 hours; Channel 1 (700 nm) or Channel 2 (800 nm). The procedure: as §1
A further assay deals with adrenal. Nature of the assay: Adrenal NIR fluorescence imaging (FLARE). The note with it: 35 kg female pig, 5 μmol intravenously, 4 hours; Channel 1 (700 nm) or Channel 2 (800 nm). The procedure: as §1
Another assay relates to gallbladder. The assay is described as follows: Gallbladder NIR fluorescence imaging (FLARE). The conditions noted are these: 25 g male mouse, 25 nmol intravenously, 4 hours; Channel 1 (700 nm) or Channel 2 (800 nm). The procedure: as §1
The test system of a further assay is bile duct. The assay is described as follows: Bile duct NIR fluorescence imaging (FLARE). The conditions noted are these: 35 kg female pig, 5 μmol intravenously, 4 hours; Channel 1 (700 nm) or Channel 2 (800 nm). The procedure:
as §1

In another assay the test system is thoracic duct. Nature of the assay: Thoracic duct NIR fluorescence imaging (FLARE). The conditions noted are these: 35 kg female pig, 5 μmol subcutaneously into the lower leg, 30 minutes; Channel 1 (700 nm) or Channel 2 (800 nm). The procedure:
as §1

The subject of the next assay is ovaries. The assay is described as follows: Ovary NIR fluorescence imaging (FLARE). The note with it: 25 g female mouse, 25 nmol intravenously, 4 hours; Channel 1 (700 nm) or Channel 2 (800 nm). The procedure: as §1
A further assay has as its system salivary glands. Nature of the assay: Salivary gland NIR fluorescence imaging (FLARE). The note with it: 25 g male mouse, 25 nmol intravenously, 4 hours; Channel 1 (700 nm) or Channel 2 (800 nm). The procedure: as §1
The test system of another assay is pan lymph nodes. The assay is described as follows: Pan lymph node NIR fluorescence imaging (FLARE). The note with it: 250 g male rat, 20 nmol intravenously, 4 hours; Channel 1 (700 nm) or Channel 2 (800 nm). The procedure: as §1

As to `CN1/C(=C/C=C/C=C/C=C/c2sc3ccccc3[n+]2C)Sc2ccccc21` [ZK208], the “NIR fluorescence contrast of the choroid plexus” value with choroid plexus is “highlighted with high contrast”.

For the compound `CN1/C(=C/C=C/C=C/C2=[N+](C)c3ccc(F)cc3C2(C)C)C(C)(C)c2cc(F)ccc21` [T14], the “NIR fluorescence contrast of the thyroid” value in the assay on thyroid is “highlighted with high contrast”. In addition, the “NIR fluorescence contrast of the parathyroid” value in the assay on parathyroid is “highlighted with high contrast”. Besides, the “NIR fluorescence contrast of the pancreas” value in the assay on pancreas is listed as “highlighted with high contrast”.

On to `CC1(C)C(/C=C/C(=C/C=C2/N(CCC[N+](C)(C)C)c3ccc(S(=O)(=O)O)cc3C2(C)C)Oc2ccc(CCC(=O)O)cc2)=[N+](CCC[N+](C)(C)C)c2ccc(S(=O)(=O)O)cc21` [LN15], for which the “NIR fluorescence contrast of the ureter” value with ureters is on record as “highlighted with high contrast”.

In the case of `CN1/C(=C/C=C/C=C/C=C/C2=[N+](C)c3ccc(Br)cc3C2(C)C)C(C)(C)c2cc(Br)ccc21` [QBN1], the “NIR fluorescence contrast of the brown fat” value with brown fat was “highlighted with high contrast”.

Consider `COc1ccc2c(c1)C(C)(C)C(/C=C/C=C/C=C/C=C1/N(C)c3ccc(OC)cc3C1(C)C)=[N+]2C` [AL22], for which the “NIR fluorescence contrast of the pancreas” value in the assay with pancreas is reported as “highlighted with high contrast”. In the assay on pituitary gland, the “NIR fluorescence contrast of the pituitary gland” value was “highlighted with high contrast”.

Take `CCCCN1/C(=C/C=C/C=C/C=C/C2=[N+](CCCC)c3ccc(Cl)cc3C2(C)C)C(C)(C)c2cc(Cl)ccc21` [AH34]: the “NIR fluorescence contrast of the white adipose tissue” value in the assay on white adipose tissue is “highlighted with high contrast”.

With `CC1(C)C(/C=C/C=C/C=C/C=C2/N(CCCc3ccccc3)c3ccccc3C2(C)C)=[N+](CCCc2ccccc2)c2ccccc21` [AL29], in the assay on spleen, the “NIR fluorescence contrast of the spleen” value is recorded as “highlighted with high contrast”.

For the compound `CN(C)CCCN1/C(=C/C=C/C=C/c2sc3cc(O)ccc3[n+]2CCCN(C)C)Sc2cc(O)ccc21` [SP66], in the assay on CSF, the “NIR fluorescence contrast of the CSF” value is “highlighted with high contrast”.

For `CC1(C)C(/C=C/C2=C(c3ccc(CCC(=O)O)cc3)C(=C/C=C3/N(CCC[N+](C)(C)C)c4ccc(S(=O)(=O)O)cc4C3(C)C)/CCC2)=[N+](CCC[N+](C)(C)C)c2ccc(S(=O)(=O)O)cc21` [A71], the “NIR fluorescence contrast of the ureter” value with ureters is “highlighted with high contrast”.

On to `CCCCN1/C(=C/C=C/C=C/c2sc3ccccc3[n+]2CCCC)Sc2ccccc21` [SP30], for which, in the assay on brown fat, the “NIR fluorescence contrast of the brown fat” value was “highlighted with high contrast”.

As for `CCN(CC)c1ccc(/C=C/C2=CC(/C=C/c3ccc(N(CC)CC)cc3)=[O+][B-](F)(F)O2)cc1` [PS31], in the assay on white adipose tissue, the “NIR fluorescence contrast of the white adipose tissue” value is reported as “highlighted with high contrast”.

As to `CC1(C)C(/C=C/C(Br)=C/C=C2/N(CCCc3ccccc3)c3ccc4ccccc4c3C2(C)C)=[N+](CCCc2ccccc2)c2ccc3ccccc3c21` [E24], in the assay with spleen, the “NIR fluorescence contrast of the spleen” value is on record as “highlighted with high contrast”.

For `CC1(C)C(/C=C/C2=C(NCCc3ccc(N)cc3)C(=C/C=C3/N(CCC[N+](C)(C)C)c4ccc(S(=O)(=O)O)cc4C3(C)C)/CCC2)=[N+](CCC[N+](C)(C)C)c2ccc(S(=O)(=O)O)cc21` [LN65], the “NIR fluorescence contrast of the seminal vesicle” value in the assay on seminal vesicle is listed as “highlighted with high contrast”.

Turning to `CCN(CC)c1ccc2nc3ccc(=[N+](CC)CC)cc-3oc2c1` [WuA96], the “NIR fluorescence contrast of the brain grey matter” value with brain grey matter is on record as “highlighted with high contrast”.

Turning to `CC1(C)C(/C=C/C=C/C=C2/N(CCCc3ccccc3)c3ccc4ccccc4c3C2(C)C)=[N+](CCCc2ccccc2)c2ccc3ccccc3c21` [E16], in the assay on adrenal, the “NIR fluorescence contrast of the adrenal” value is “highlighted with high contrast”.

With `CCN1/C(=C/C=C/C=C/c2sc3cc(C)ccc3[n+]2CC)Sc2cc(C)ccc21` [SP60], in the assay with pituitary gland, the “NIR fluorescence contrast of the pituitary gland” value is reported as “highlighted with high contrast”.

As for `CC1(C)C(/C=C/C2=C(Sc3ccc(CC(=O)O)cc3)C(=C/C=C3/N(CCC[N+](C)(C)C)c4ccc(S(=O)(=O)O)cc4C3(C)C)/CCC2)=[N+](CCC[N+](C)(C)C)c2ccc(S(=O)(=O)O)cc21` [CNN2], in the assay with seminal vesicle, the “NIR fluorescence contrast of the seminal vesicle” value is “highlighted with high contrast”.

For `CN1/C(=C/C=C/C=C/C=C/C2=[N+](C)c3ccc(F)cc3C2(C)C)C(C)(C)c2cc(F)ccc21` [QBN14], the “NIR fluorescence contrast of the thyroid” value in the assay with thyroid is on record as “highlighted with high contrast”. The “NIR fluorescence contrast of the parathyroid” value in the assay with parathyroid was “highlighted with high contrast”.

Take `CN1/C(=C/C2=CC3=C/C(=C/c4sc5cc(O)ccc5[n+]4C)CCC3CC2)Sc2cc(O)ccc21` (stereo not shown) [ZK198]: the “NIR fluorescence contrast of the gallbladder” value in the assay with gallbladder is reported as “highlighted with high contrast”. Besides, the “NIR fluorescence contrast of the bile duct” value in the assay on bile duct is “highlighted with high contrast”. Besides, in the assay with thoracic duct, the “NIR fluorescence contrast of the thoracic duct” value was “highlighted with high contrast”.

`CC1(C)C(/C=C/C(Br)=C/C=C2/N(CCC[N+](C)(C)C)c3ccc(S(=O)(=O)O)cc3C2(C)C)=[N+](CCC[N+](C)(C)C)c2ccc(S(=O)(=O)O)cc21` [A106]: the “NIR fluorescence contrast of the bile duct” value in the assay on bile duct is “highlighted with high contrast”. The “NIR fluorescence contrast of the thoracic duct” value in the assay with thoracic duct is listed as “highlighted with high contrast”.

In the case of `CCCCN1/C(=C/C=C/C=C/C=C/C2=[N+](CCCC)c3ccccc3C2(C)C)C(C)(C)c2ccccc21` [AL27], the “NIR fluorescence contrast of the adrenal” value in the assay on adrenal is on record as “highlighted with high contrast”. In the assay on ovaries, the “NIR fluorescence contrast of the ovaries” value was “highlighted with high contrast”.

On to `CNCCCN1/C(=C/C=C/C=C/c2sc3ccccc3[n+]2CCCNC)Sc2ccccc21` [ZK211], for which, in the assay with salivary glands, the “NIR fluorescence contrast of the salivary glands” value is “highlighted with high contrast”.

For the compound `CN1\C(=C/C=C/C=C/C2=[N+](C)c3cc4c(cc3C2(C)C)OCO4)C(C)(C)c2cc3c(cc21)OCO3` [NRB1], the “NIR fluorescence contrast of the salivary glands” value with salivary glands is given as “highlighted with high contrast”.

As for `CC1(C)C(/C=C/C(Br)=C/C=C2/N(CCC[N+](C)(C)C)c3ccc(Br)cc3C2(C)C)=[N+](CCC[N+](C)(C)C)c2ccc(Br)cc21` [A150], the “NIR fluorescence contrast of all lymph nodes” value in the assay on pan lymph nodes was “highlighted with high contrast”.

Regarding `CCCC[N+]1=C(/C=C/C=C/C=C/C=C2/N(C)c3ccccc3C2(C)C)C(C)(C)c2cc(OC)ccc21` [ZK189], the “NIR fluorescence contrast of the brain grey matter” value in the assay with brain grey matter is on record as “highlighted with high contrast”.

As to `CN1/C(=C/C=C/C=C/c2sc3ccccc3[n+]2C)Sc2ccccc21` [SP28], the “NIR fluorescence contrast of the choroid plexus” value in the assay on choroid plexus is recorded as “highlighted with high contrast”.

Values taken from patent US11077210B2, “Near-infrared fluorescent contrast bioimaging agents and methods of use thereof” (Beth Israel Deaconess Medical Center, priority 2013, dated 2021).
